≈ marks a conversion by molar mass, not a printed value. Read-outs that look alike come from different tables or passages of the source.
Columns and labels:
C. glabrata = assay: Broth microdilution susceptibility test (CLSI M27-A4), C. glabrata; format: cell-based; details: RPMI 1640, 30 °C, 24–48 h, mean of triplicate; for MIC: read-out: MIC75 C. glabrata
Method: (§1) Broth microdilution susceptibility test: The minimum inhibitory concentrations (MIC75) were determined by the broth microdilution method according to the Clinical and Laboratory Standards Institute (CLSI) M27-A4 standard ([CLSI, 2017])). Briefly, a suspension of C. albicans or C. glabrata culture (~0.5–2.5 × 10^3 cells/ml) was resuspended in RPMI 1640 media (Fisher Catalog number 11875093). The resuspended culture was further incubated with 100 μl of two-fold serially diluted test compounds (100–0.8 μM and 1.0 μM to 7 nM) at 30 °C for 24–48 h. Positive and negative control (wells without antifungal agents and wells without yeast) were conducted. Increased optical density (OD) corresponds to the Candida growth and was quantified by comparison with untreated Candida control samples. The MIC75 of test compounds was determined visually and spectrophotometrically (OD600) after 24–48 h. Experiments were run in triplicate, and data was reported as a mean.

C. albicans = assay: Broth microdilution susceptibility test (CLSI M27-A4), C. albicans; format: cell-based; details: RPMI 1640, 30 °C, 24–48 h, mean of triplicate; for MIC: read-out: MIC75 C. albicans
Method: as §1

human Cyp3A4 = human Cyp3A4 (Homo sapiens, UniProt P08684); details: for IC50: read-out: CYP 3A4 IC50, human Cyp3A4 supersomes, 2 μM midazolam, 30 min at 37°C
Chain of human Cyp3A4 (P08684 2-503 limits assumed): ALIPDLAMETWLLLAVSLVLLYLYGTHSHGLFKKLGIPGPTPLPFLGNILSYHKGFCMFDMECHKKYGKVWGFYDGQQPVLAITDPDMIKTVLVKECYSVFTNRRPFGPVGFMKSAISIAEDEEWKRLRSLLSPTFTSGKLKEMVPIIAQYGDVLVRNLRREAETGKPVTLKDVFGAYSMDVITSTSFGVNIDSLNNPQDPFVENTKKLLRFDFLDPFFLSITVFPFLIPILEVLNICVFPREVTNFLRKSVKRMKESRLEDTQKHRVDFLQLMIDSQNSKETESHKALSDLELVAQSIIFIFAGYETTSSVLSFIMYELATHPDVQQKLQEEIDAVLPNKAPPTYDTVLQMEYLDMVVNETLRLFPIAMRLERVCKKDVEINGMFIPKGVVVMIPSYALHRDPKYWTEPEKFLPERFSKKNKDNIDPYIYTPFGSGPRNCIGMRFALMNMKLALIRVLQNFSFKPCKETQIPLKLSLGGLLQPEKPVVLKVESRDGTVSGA

| SMILES | MIC (C. glabrata) | MIC (C. albicans) | other results |
| --- | --- | --- | --- |
| C[C@@H]1[C@H](O)[C@@H](C)/C=C/C=C/C=C/C=C/C=C/C=C/C=C/[C@H](O[C@@H]2O[C@H](C)[C@@H](O)[C@H](N)[C@@H]2O)C[C@@H]2O[C@](O)(C[C@@H](O)C[C@@H](O)[C@H](O)CC[C@@H](O)C[C@@H](O)CC(=O)O[C@H]1C)C[C@H](O)[C@H]2C(=O)O [Amphotericin B, reference compound] |  |  | MIC (C. glabrata; Nakaseomyces glabratus): 250 nM (≈ 0.231 µg/mL); MIC (C. albicans; Candida albicans): 250 nM (≈ 0.231 µg/mL) |
| CCCS(=O)(=O)N1CCN(c2ccc(OC[C@@H]3CO[C@@](Cn4ccnc4)(c4ccc(Cl)cc4Cl)O3)cc2)CC1 [Entry 3c] | 500 nM (≈ 0.298 µg/mL) | 125 nM (≈ 0.0744 µg/mL) | IC50 (human Cyp3A4): 75.6 nM |
| CC(C)S(=O)(=O)N1CCN(c2ccc(OC[C@@H]3CO[C@@](Cn4ccnc4)(c4ccc(Cl)cc4Cl)O3)cc2)CC1 [Entry 3d] |  |  | MIC75 C. glabrata (C. glabrata): complete loss of in vitro antifungal activity and N.E.; MIC75 C. albicans (C. albicans): complete loss of in vitro antifungal activity and N.E. |
| CS(=O)(=O)CS(=O)(=O)N1CCN(c2ccc(OC[C@@H]3CO[C@@](Cn4ccnc4)(c4ccc(Cl)cc4Cl)O3)cc2)CC1 [Entry 3h] | 6250 nM (≈ 4.03 µg/mL) | 800 nM (≈ 0.516 µg/mL) |  |
| O=S(=O)(N1CCN(c2ccc(OC[C@@H]3CO[C@@](Cn4ccnc4)(c4ccc(Cl)cc4Cl)O3)cc2)CC1)C(F)(F)F [Entry 3i] | 1600 nM (≈ 0.994 µg/mL) | 800 nM (≈ 0.497 µg/mL) |  |
| O=S(=O)(CC(F)(F)F)N1CCN(c2ccc(OC[C@@H]3CO[C@@](Cn4ccnc4)(c4ccc(Cl)cc4Cl)O3)cc2)CC1 [Entry 3j] | 800 nM (≈ 0.508 µg/mL) | 1600 nM (≈ 1.02 µg/mL) | IC50 (human Cyp3A4): 450 nM |
| O=S(=O)(CCC(F)(F)F)N1CCN(c2ccc(OC[C@@H]3CO[C@@](Cn4ccnc4)(c4ccc(Cl)cc4Cl)O3)cc2)CC1 [Entry 3k] |  | 1600 nM (≈ 1.04 µg/mL) | IC50 (human Cyp3A4): 249 nM; MIC75 C. glabrata (C. glabrata): no effect and N.E. |
| O=S(=O)(CC(F)F)N1CCN(c2ccc(OC[C@@H]3CO[C@@](Cn4ccnc4)(c4ccc(Cl)cc4Cl)O3)cc2)CC1 [Entry 3l] | 250 nM (≈ 0.154 µg/mL) | 62 nM (≈ 0.0383 µg/mL) | improvement in selectivity (Cyp3A4 versus C. albicans) relative to (±)-Ketoconazole (2) (human Cyp3A4; 3l versus 2): 5 fold; window between Cyp3A4 inhibition and activity against C. albicans (human Cyp3A4; Cyp3A4 IC50 versus C. albicans MIC75): 2.6 fold; IC50 (human Cyp3A4): 162 nM |
| CC(=O)N1CCN(c2ccc(OC[C@@H]3CO[C@@](Cn4ccnc4)(c4ccc(Cl)cc4Cl)O3)cc2)CC1 [Entry 4, (2S, 4R)-Ketoconazole, reference compound] |  |  | MIC (C. glabrata; Nakaseomyces glabratus): 500 nM (≈ 0.266 µg/mL); MIC (C. albicans; Candida albicans): 125 nM (≈ 0.0664 µg/mL) |

Further lines, with some results ahead:

| MIC (C. glabrata) | MIC (C. albicans) | SMILES | other results |
| --- | --- | --- | --- |
| 500 nM (≈ 0.266 µg/mL) |  | CC(=O)N1CCN(c2ccc(OC[C@H]3CO[C@](Cn4ccnc4)(c4ccc(Cl)cc4Cl)O3)cc2)CC1 (racemic) [Entry 2, (±)-Ketoconazole, reference compound] | MIC (C. glabrata; Nakaseomyces glabratus): 250 nM (≈ 0.133 µg/mL); MIC (C. albicans; Candida albicans): 250 nM (≈ 0.133 µg/mL) |
|  | 125 nM (≈ 0.0709 µg/mL) | CS(=O)(=O)N1CCN(c2ccc(OC[C@@H]3CO[C@@](Cn4ccnc4)(c4ccc(Cl)cc4Cl)O3)cc2)CC1 [Entry 3a] |  |
| 500 nM (≈ 0.291 µg/mL) | 125 nM (≈ 0.0727 µg/mL) | CCS(=O)(=O)N1CCN(c2ccc(OC[C@@H]3CO[C@@](Cn4ccnc4)(c4ccc(Cl)cc4Cl)O3)cc2)CC1 [Entry 3b] |  |
| 800 nM (≈ 0.475 µg/mL) | 800 nM (≈ 0.475 µg/mL) | O=S(=O)(C1CC1)N1CCN(c2ccc(OCC3COC(Cn4ccnc4)(c4ccc(Cl)cc4Cl)O3)cc2)CC1 (stereo not shown) [Entry 3e] |  |
| 500 nM (≈ 0.296 µg/mL) | 250 nM (≈ 0.148 µg/mL) | N#CCS(=O)(=O)N1CCN(c2ccc(OC[C@@H]3CO[C@@](Cn4ccnc4)(c4ccc(Cl)cc4Cl)O3)cc2)CC1 [Entry 3g] |  |
